Literature values as cited in patent US12599565B2, “Stable benzimidazole formulation” (DEXCEL PHARMA TECHNOLOGIES LTD., priority 2008, dated 2026).

COc1ccc2[nH]c([S+]([O-])Cc3ncc(C)c(OC)c3C)nc2c1 (centres unmarked) [Omeprazole, 5-methoxy-2(((4-methoxy-3,5-dimethyl-2-pyridinyl)methyl)sulfinyl)-1H-benzimidazole]
half life (pH 11): about 300 days
half-life of degradation (pH values below 4.0): less than 10 minutes
